How the values were obtained:
A1-T458S (mutant ASCT1) = molecular target: T1, A1-T458S (mutant ASCT1) (Homo sapiens, UniProt P43007, T458S); assay: Two electrode voltage clamp, substrate-activated anion current in oocytes expressing A1-T458S; type: cell-based; conditions: NO3−-containing buffer, current at +60 mV, dash = substrate did not generate currents
T1 construct: expressed in transfected cells; host or cells: Xenopus laevis oocytes (cRNA injection)
T1 sequence (P43007 1-532 T458S): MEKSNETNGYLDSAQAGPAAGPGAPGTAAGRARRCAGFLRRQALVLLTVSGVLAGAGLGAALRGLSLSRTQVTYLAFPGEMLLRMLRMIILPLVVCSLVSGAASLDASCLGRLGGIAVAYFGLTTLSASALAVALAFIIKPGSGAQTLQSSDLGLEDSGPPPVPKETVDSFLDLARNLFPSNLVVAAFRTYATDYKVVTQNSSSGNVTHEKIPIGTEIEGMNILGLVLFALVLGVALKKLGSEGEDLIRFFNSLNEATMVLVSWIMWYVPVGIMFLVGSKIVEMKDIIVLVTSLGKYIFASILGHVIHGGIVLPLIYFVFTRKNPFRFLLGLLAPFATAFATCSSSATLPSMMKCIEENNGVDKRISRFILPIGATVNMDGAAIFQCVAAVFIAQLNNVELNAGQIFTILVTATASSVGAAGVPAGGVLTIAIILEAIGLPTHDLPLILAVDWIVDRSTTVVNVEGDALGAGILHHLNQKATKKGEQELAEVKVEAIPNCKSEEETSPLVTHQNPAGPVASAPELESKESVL
Description: (§1) All chemicals were obtained from Sigma unless otherwise stated. Stage V oocytes were harvested from female Xenopus laevis (frogs) which were obtained from Nasco (Fort Alkinson, USA). Frogs were anaesthetised with 6.5 mM tricaine neutralised with 7.14 mM sodium bicarbonate. After making an incision in the abdomen of the frog, ovarian sacs were removed and stored in OR-2 buffer (82.5 mM NaCl, 2 mM KCl, 1 mM MgCl2, 5 mM hemisodium HEPES, pH 7.5). This surgical procedure follows a protocol (#2016/970) approved by the University of Sydney Animal Ethics Committee under the Australian Code of Practice for the Care and Use of Animals for Scientific Purposes. […]
(§2) After 2–4 days of microinjection, current recordings were made using the two electrode voltage clamp technique with a Geneclamp 500 amplifier (Axon Instruments, Foster City, CA) interfaced with a MacLab 2e chart recorder (ADI Instruments, Sydney, Australia) using the chart software, and a Digidata 1322A (Axon Instruments) controlled by an IBM-compatible computer using the pClamp software (version 10, Molecular Devices, Union City, CA). […] Current–voltage relationships were calculated by subtracting steady state current measurements in the absence of substrate from corresponding current measurements in the presence of substrate. […]

ASCT2 = molecular target: T2, ASCT2 (Homo sapiens, UniProt Q15758); assay: Two electrode voltage clamp, substrate-activated anion current in oocytes expressing ASCT2; type: cell-based
T2 sequence (Q15758 1-541): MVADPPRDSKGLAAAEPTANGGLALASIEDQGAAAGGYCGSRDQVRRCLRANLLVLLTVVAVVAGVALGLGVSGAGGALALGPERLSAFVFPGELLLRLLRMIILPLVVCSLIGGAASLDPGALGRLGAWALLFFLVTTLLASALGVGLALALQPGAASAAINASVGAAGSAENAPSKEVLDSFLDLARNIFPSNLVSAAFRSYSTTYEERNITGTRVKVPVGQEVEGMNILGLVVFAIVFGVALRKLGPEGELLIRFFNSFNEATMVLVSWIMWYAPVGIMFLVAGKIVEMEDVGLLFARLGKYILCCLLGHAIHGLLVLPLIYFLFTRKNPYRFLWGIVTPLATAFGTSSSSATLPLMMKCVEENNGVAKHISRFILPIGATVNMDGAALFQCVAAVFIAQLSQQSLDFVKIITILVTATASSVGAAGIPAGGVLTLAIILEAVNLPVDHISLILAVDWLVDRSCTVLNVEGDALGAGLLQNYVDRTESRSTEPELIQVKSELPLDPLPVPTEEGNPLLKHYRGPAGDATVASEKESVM
Description: as §1, §2

NC(=O)CC[C@H](N)C(=O)O [L-glutamine]
EC50 of substrate-activated current (A1-T458S (mutant ASCT1)): does not respond

N[C@@H](CCC(=O)Nc1ccc([N+](=O)[O-])cc1)C(=O)O [GPNA, glutamyl-p-nitroanilide]
GPNA % inhibition of L-serine activated current (ASCT2; GPNA co-applied with EC50 of L-serine, 300 µM GPNA / 1 mM GPNA (Table 1 footnote)): 90 ± 5% | IC50 (ASCT2; co-applied with EC50 of L-serine, read-out: IC50 for inhibition of L-serine activated current): 90 ± 20 µM

N[C@@H](CO)C(=O)O [L-serine]
EC50 (A1-T458S (mutant ASCT1)): 106 ± 4 µM

Reference: paper PMC5750217 (Nature Communications, 2018)
